{"source": "patent EP0851902B1", "about": "“METHOD FOR COATING” (F2 Chemicals Ltd., priority 1995, dated 1997)", "assay": "Water solubility (typical physical properties, Table 1)", "type": "physicochemical", "conditions": "components of the 2% w/w solution of resin in perfluorohexane", "description": "A solution of a fluoropolymer resin, prepared in accordance with details given in PCT Patent Application No. WO 94/05498 (and documents referred to therein), was prepared by dissolving sufficient of it, at room temperature in perfluorohexane (\"FLUTEC\" PP-1 from BNFL Fluorochemicals Ltd) to make a 2% w/w solution.", "data": [{"molecule": "FC(F)(F)C(F)(F)C(F)(F)C(F)(F)C(F)(F)C(F)(F)F", "note": "[SOLVENT, perfluorohexane]", "values": [{"measurement": "Water Solubility", "value": "Insoluble"}]}]}
